According to PubChem BioAssay (NCI):
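Following 48 hours of exposure in 96-well plates, responses at five concentrations were used to interpolate endpoints linearly. The concentration for 50% growth inhibition is given as GI50. TGI: concentration producing complete growth inhibition.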

Legend:
Assay in all cases: DTP human tumour cell line panel, 48 h
[1] = test system: HCT-116 colon
[2] = test system: HCT-15 colon
[3] = test system: KM12 colon
[4] = test system: MALME-3M melanoma
[5] = test system: PC-3 prostate
[6] = test system: SF-295 CNS
[7] = test system: SK-MEL-28 melanoma
[8] = test system: SN12C renal
[9] = test system: SW-620 colon
[10] = test system: UACC-257 melanoma

Structure (SMILES) | GI50 [1] | TGI [1] | GI50 [2] | TGI [2] | GI50 [3] | TGI [3] | GI50 [4] | TGI [4] | GI50 [5] | TGI [5] | GI50 [6] | TGI [6] | GI50 [7] | TGI [7] | GI50 [8] | TGI [8] | GI50 [9] | TGI [9] | GI50 [10] | TGI [10]
CC[C@]12CCCN3CC[C@]4(C(=C(C(=O)OC)C1)Nc1ccccc14)[C@@H]32 | 14.6 µM | 33 µM | 13.7 µM | 28.5 µM | 16.7 µM | 39.1 µM | 13 µM | 29.7 µM | 20.5 µM | 61.5 µM | 17.9 µM | 36.1 µM | 21.3 µM | 64.7 µM | 16.4 µM | 33.2 µM | 16.2 µM | 33.3 µM | 16.7 µM | 42.2 µM
COc1ccc(Cn2c(Br)c3c(c2-c2cc(OC)c(OC)c(OC)c2)CCc2sc(NC(C)=O)nc2-3)cc1 | 3.4 µM | 14.6 µM | 3.12 µM | 32.2 µM | 4.03 µM | > 100 µM | 12.7 µM | 83.4 µM | 3.44 µM | > 100 µM | 2.41 µM | 8.54 µM | 5.09 µM | > 100 µM | 4.99 µM | > 100 µM | 3.63 µM | > 100 µM | 98.5 µM | > 100 µM
Cc1nc2cc(N)c(Cl)cc2[nH]1 |  | > 100 µM |  | > 100 µM |  | > 100 µM |  | > 100 µM |  | > 100 µM |  | > 100 µM |  | > 100 µM |  | > 100 µM |  | > 100 µM |  | > 100 µM
O=C(/C=C/c1cccnc1)c1ccccc1O | 16.8 µM | 34.9 µM | 15.6 µM | 41 µM | 32.2 µM | > 100 µM | 22.2 µM | 62.9 µM | 21.9 µM | 66.8 µM | 16.6 µM | 41.7 µM | 24.1 µM | 72.3 µM | 24.4 µM | 81.9 µM | 22.5 µM | 63.2 µM | 25.4 µM | 60.3 µM
CC([O-])C(=O)[O-].NCC1CCC1CN.[Pt+4] (stereo not given) | > 10 µM | > 10 µM | > 10 µM | > 10 µM | > 10 µM | > 10 µM | > 10 µM | > 10 µM | > 10 µM | > 10 µM | > 10 µM | > 10 µM | > 10 µM | > 10 µM | > 10 µM | > 10 µM | > 10 µM | > 10 µM | > 10 µM | > 10 µM
CC(=O)Nc1sc2c(c1-c1nc3ccccc3s1)CNC2 | 1.99 µM | 12.5 µM | 1.56 µM | 8.89 µM | 3.38 µM | > 50 µM | 2.21 µM | 8.75 µM | 3.37 µM | 18.4 µM | 2.25 µM | 9.93 µM | 2.94 µM | 9.93 µM | 2.5 µM | 15.5 µM | 2.33 µM | 48.3 µM | 5.41 µM | 14.8 µM
COc1cc(OC)cc(-c2cncn2-c2ccc(-c3nc4cc(OC)c(OC)c(OC)c4s3)cc2)c1 | 3.76 µM | > 100 µM | 5.72 µM | > 100 µM | 5.54 µM | > 100 µM | 9.59 µM | 75.1 µM | 3.17 µM | > 100 µM | 3.64 µM | 52.9 µM | 31.6 µM | > 100 µM | 31.9 µM | > 100 µM | 13.7 µM | > 100 µM | 20.5 µM | > 100 µM
O=C1c2ccccc2C(=O)c2c1ccc1c2OCO1 |  | > 100 µM |  | > 100 µM |  | > 100 µM |  | > 100 µM |  | > 100 µM |  | > 100 µM |  | > 100 µM |  | > 100 µM |  | > 100 µM |  | > 100 µM
CCN(CC)CC(O)C1CCC(c2ccccc2)CC1 (stereo not given) |  | > 100 µM |  | 42.3 µM |  | 71.3 µM |  | 32.3 µM |  | > 100 µM |  | 36.6 µM |  | 48.9 µM |  | > 100 µM |  | 80.9 µM |  | 50.5 µM
O=[N+]([O-])c1ccc(-c2cn(-c3ccc(Cl)cc3)cn2)cc1 |  | > 100 µM |  | > 100 µM |  | > 100 µM |  | > 100 µM |  | > 100 µM |  | 36.9 µM |  | > 100 µM |  | > 100 µM |  | > 100 µM |  | > 100 µM
C=C1C(=O)OC2/C=C(\C)C3OC3/C=C(/C(=O)OC)C(OC(C)=O)C(OC(=O)C(C)(O)C(C)OC(C)=O)C12 (stereo not given) |  | 6.14 µM |  | > 34.1 µM |  | 6.36 µM |  | 7.88 µM |  | 14.8 µM |  | 21.5 µM |  | 6.14 µM |  | 7.02 µM |  | 2.25 µM |  | 2.34 µM
CN1CCCN(C(c2ccccc2)c2ccc(Br)cc2)CC1 (stereo not given) | 1.84 µM | 4.23 µM | 3.49 µM | 14 µM | 2.73 µM | 7.09 µM | 2.57 µM | 11.8 µM | 2.87 µM | 13.5 µM | 3.52 µM | 14.5 µM | 2.43 µM | 5.97 µM | 3.51 µM | 12.5 µM | 2.9 µM | 10.6 µM | 2.41 µM | 5.41 µM
O=C(Nc1ccc(Br)cc1F)c1cc(Br)ccc1O | 0.732 µM | 4.28 µM | 0.731 µM | 7.32 µM | 1.93 µM | 5.66 µM | 0.32 µM | 1.82 µM | 2.06 µM | 7.69 µM | 1.58 µM | 3.56 µM | 0.4 µM | 2.13 µM | 0.519 µM | 6.39 µM | 1.14 µM | 7.42 µM | 0.829 µM | 5.34 µM
COc1cc2c3c(c4c5ccccc5[nH]c4c2c(OC)c1OC)C(=O)N(CCN1CCCCC1)C3=O | 0.351 µM | 1.46 µM | 0.498 µM | 2.07 µM | 1.02 µM | 2.59 µM | 1.36 µM | 2.85 µM | 1.22 µM | 2.64 µM | 1.25 µM | 3.13 µM | 1.74 µM | 3.32 µM | 1.1 µM | 2.54 µM | 0.474 µM | 2.56 µM | 2.79 µM | 9.62 µM
